The inhibition is the percentage by which the read-out fell short of the control.

Consider one molecule from EP2999467B1, “USE OF A COMBINATION OF TWO COMPOUNDS FOR THE TREATMENT AND/OR PREVENTION OF BONE DISORDERS” (Institut National de la Recherche Agronomique (INRA), priority 2013, dated 2014).

The test has as its system RAW264.7. Put plainly: TRAP staining: RANKL-induced osteoclast differentiation, count of multinucleated TRAP+ cells. Format: cell-based. The source says: Les préostéoblastes primaires ont été isolés à partir de la calotte crânienne de rats Wistar nouveaux-nés par digestion enzymatique comme précédemment décrit [Declercq, H., Van den Vreken, N., De Maeyer, E., Verbeeck, R., Schacht, E., De Ridder, L., and Cornelissen, M. (2004). Isolation, proliferation and differentiation of osteoblastic cells to study cell/biomaterial interactions: comparison of different isolation techniques and source. Biomaterials 25, 757-68.]. Les précurseurs d'ostéoclastes RAW264.7 ont été obtenus auprès de l'ATCC (Manassas, VA, USA). Les préostéoblastes et les RAW264.7 ont été cultivés dans du milieu α-MEM (Invitrogen, Carlsbad, CA, USA) supplémenté avec 10% de SVF décomplémenté et de 100 unités/ml de pénicilline-streptomycine.
Pour la coloration TRAP, 60.000 cellules RAW264.7 ont été ensemencées dans des puits de plaques 12 puits pendant 12 heures puis traitées avec du DMSO/éthanol comme témoin ou de la fisétine (5 µM dans le DMSO) ou du DHA (50µM dans l'éthanol) ou la combinaison des deux (Fisétine 5 µM et DHA 50 µM) pendant 3 heures. Les cellules ont ensuite été induites à se différencier en présence de RANKL (50 ng/ml) avec du DMSO/éthanol ou de la fisétine (5 µM) ou du DHA (50 µM) ou la combinaison des deux (Fisétine 5 µM et DHA 50 µM) durant 4 jours avec un changement de milieux après 2 jours. De la BSA délipidée et sans endotoxines a été utilisée pour solubiliser le DHA avec un rapport 1/5 (BSA/DHA).
La coloration TRAP a été réalisée en utilisant le kit « leukocyte acid phosphatase » (Sigma-Aldrich) selon les recommandations du fournisseur après fixation des cellules. Les cellules TRAP+ multinucléées ont ensuite été comptées.

On to `CC/C=C\C/C=C\C/C=C\C/C=C\C/C=C\C/C=C\CCC(=O)O` [DHA, acide docosahexaénoïque], for which the inhibition at 50 µM (Mus musculus, RAW264.7, 96 h, DHA 50µM, RANKL 50 ng/ml, 4 days, vs RANKL condition, read-out: inhibition de l'induction par RANKL de la formation de cellules multinucléées TRAP+ (ostéoclastes)) amounted to 23%. Further, the “ostéoclastes/cm^2” value (condition RANKL+DHA (50µM), RANKL alone 735+/-251) is given as 564+/-259 ostéoclastes/cm^2.
